The values that follow come from PubChem BioAssay AID1259418 (Broad Institute, 2018).

Values joined by “and” are separate entries in the source; they are usually repeats but may differ in a detail not shown here. Identical values can stand only once. Records with an inconclusive call do not appear. Active and inactive are the calls of the source.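 How the source made its calls: active means fitted half-maximal concentration of signal decrease at or below twice the sample's top tested concentration; inconclusive means flat curve between -70 and -30 percent, or poor fit; inactive means flat within 30 percent, signal rise, or potency above limit.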

The target of the test is T. gondii ME49Luc in IFN-y HeLa, luciferase, 72 h. Briefly: inhibitors of Toxoplasma growth in IFN-γ-primed HeLa – cell-based, ME49Luc, luciferase, 72 h, dose response (AID 1259418).
With `COc1ccc(NC(=O)N2CCCCN3[C@H](C2)[C@@H](c2ccc(-c4ccccc4F)cc2)[C@@H]3CO)cc1`, the AC50 is 32.8 µM.

Take `C/C=C/c1ccc([C@H]2[C@@H](CO)N3CCCCN(S(=O)(=O)c4ccc(OC)cc4)C[C@H]23)cc1`: the AC50 was 15.7 µM.

Consider `CCC(C)Nc1nc(-c2ccc(OC)cc2)nc2ccccc12` (configuration not stated), for which the AC50 was > 39 µM (inactive).

For the compound `CCN1CCCC1CNC(=O)C1CCN(Cc2cc3ccccc3n2Cc2cccc(C)c2)CC1` (configuration not stated), the half-maximal activity concentration (AC50) was 25.5 µM.

`COc1cccc(-c2nc3c(s2)CN(S(=O)(=O)c2ccccc2C)CC3)c1`: the concentration at half-maximal activity (AC50) is 6.95 µM and 17.2 µM.

Turning to `O=C(c1ccc(F)cc1)N1CC(=O)N2[C@H](CO)[C@H](c3ccc(C#CCC4CCCC4)cc3)[C@@H]2C1`, the AC50 is 14.4 µM and 12 µM.

For the compound `CC(C)CC#Cc1ccc([C@H]2[C@@H](CO)N3C(=O)CN(C(=O)Nc4cc(F)ccc4F)C[C@H]23)cc1`, the concentration at half-maximal activity (AC50) was 22.1 µM and 15.7 µM.

With `Cc1nc(CCNC(=O)C2CCN(C(=O)c3cccc(Cl)c3)CC2)cs1`, the AC50 was 31.5 µM.

`COc1ccc(-c2nc(NCCCN3CCCC(C)C3)c3ccccc3n2)cc1` (configuration not stated): the AC50 is > 20 µM (inactive).

Consider `CCOc1ccccc1-c1nc(CN(c2ccccc2OC)S(=O)(=O)c2ccccc2)c(C)o1`, for which the AC50 is 7.68 µM.

`CC(C)C#Cc1ccc([C@@H]2[C@@H](CO)N(C(=O)c3cccc(F)c3)[C@H]2C#N)cc1`: the concentration at half-maximal activity (AC50) is 14.2 µM and 27.9 µM.

As for `Cc1nc(OCC(=O)Nc2cccc(F)c2)c2ccccc2n1`, the AC50 is 28.8 µM.

As to `COc1cccc(-c2ccc3c(c2)[C@@H]2[C@@H](CCN2S(=O)(=O)c2ccccc2F)[C@@H](CO)N3)c1`, the AC50 was 25.4 µM.

With `Clc1cncc(OC[C@H]2CO[C@@H]3CN(Cc4cccs4)C[C@@H]23)c1`, the concentration at half-maximal activity (AC50) is 15.3 µM.

For the compound `CCN1CCCC1CNc1nc(-c2ccc(OC)cc2)nc2ccccc12` (configuration not stated), the half-maximal activity concentration (AC50) was 15.1 µM.

Take `Cc1ccccc1-c1ccc(C2[C@@H]3CN(C(=O)C4CCOCC4)C[C@H]2N3)cc1` (some centres not stated): the AC50 was 26.4 µM.

Consider `O=C(c1cccc(F)c1)N1CCCCN2[C@H](C1)[C@H](c1ccc(C#CC3(O)CCCC3)cc1)[C@@H]2CO`, for which the concentration at half-maximal activity (AC50) was 9.01 µM.

Consider `O=C(NCCc1csc(-c2ccccc2)n1)C1CCN(S(=O)(=O)c2ccc(Cl)cc2)CC1`, for which the AC50 is 14.6 µM.

Consider `Cc1cnn(C(C)C(=O)N2CCc3[nH]nc(-c4ccc(F)c(F)c4)c3C2)c1` (configuration not stated), for which the AC50 was > 20 µM (inactive).

With `CCCC#Cc1ccc([C@@H]2[C@H]3CN(C(=O)Nc4cccc(F)c4)CC(=O)N3[C@H]2CO)cc1`, the AC50 is 17.4 µM.

On to `C(=C\c1ccc(C2[C@H]3CNC[C@@H]2N3CC2CCOCC2)cc1)/c1ccccc1` (some centres not stated), for which the AC50 is 26.3 µM.

Consider `Cc1cccc(-c2nc(CN(c3ccccc3)S(=O)(=O)c3ccccc3)c(C)o2)c1`, for which the concentration at half-maximal activity (AC50) was 5.9 µM and 16.3 µM.

In the case of `CN(C)C(=O)c1ccc(-c2ccc3c(c2)[C@@H]2[C@@H](CCN2C(=O)C2CCCC2)[C@H](CO)N3C)cc1`, the concentration at half-maximal activity (AC50) was 20.6 µM.

In the case of `CCc1cc(C(=O)Nc2ccc(C)cc2-c2cc(C)[nH]n2)c2c(C)noc2n1`, the AC50 was 11.8 µM.

For the compound `COc1cccc(N(Cc2nc(-c3ccccc3)oc2C)S(=O)(=O)c2ccccc2C)c1`, the concentration at half-maximal activity (AC50) is 5.46 µM.

Consider `CC(C)C#Cc1ccc([C@H]2[C@@H](CO)N3C(=O)CN(C(=O)NC4CCCC4)C[C@H]23)cc1`, for which the AC50 was > 39 µM (inactive).

With `C[C@H]1CN([C@@H](C)CO)C(=O)c2cccc(NS(=O)(=O)c3ccc(F)cc3)c2O[C@H]1CN(C)Cc1ccc(Cl)c(Cl)c1`, the AC50 is 19.2 µM and 11.7 µM.

As for `CCN(CCCNC(=O)CC1Nc2c3ccccc3nc(=S)n2C1=O)c1ccccc1` (configuration not stated), the AC50 was > 39 µM (inactive).

With `Cc1ccc(OCC(=O)Nc2ccc(-c3nc(-c4ccccc4)co3)cc2)cc1`, the AC50 is > 39 µM (inactive).

On to `CCOc1ccc(-c2nc3c(s2)CN(S(=O)(=O)c2cccc(F)c2)CC3)cc1`, for which the AC50 was > 39 µM (inactive).

`CCS(=O)(=O)N1CCc2nc(-c3cccc(F)c3)nc(NC3CC3)c2C1`: the AC50 is 31.4 µM.

In the case of `Clc1ccc(CNc2nc(SCc3cccc(Cl)c3)nc3ccccc23)cc1`, the half-maximal activity concentration (AC50) was 5.24 µM.

Take `Cc1cccc(S(=O)(=O)N2C[C@H]3[C@@H](c4ccccc42)[C@@H](CO)N3C(=O)c2ccccc2)c1`: the AC50 was > 39 µM (inactive).

On to `CCCCNc1ncnc2c1cnn2-c1ccc(C)cc1C`, for which the AC50 is 28.1 µM.

`COc1cccc(S(=O)(=O)N2CCCCN3[C@H](CO)[C@H](c4ccc(C#CCC(C)C)cc4)[C@@H]3C2)c1`: the AC50 is 13.6 µM and 2.35 µM.

As for `O=C(CC1N=C2c3ccccc3N=C(SCc3ccccc3Cl)N2C1=O)NCc1ccco1` (configuration not stated), the AC50 is > 39 µM (inactive).

For `COc1ccc(CNC2=NCCNC23CCN(S(=O)(=O)c2ccc(CC(C)C)cc2)CC3)cc1`, the concentration at half-maximal activity (AC50) was 6.46 µM.

Consider `COc1ccc(-c2nc(CN(c3ccccc3)S(=O)(=O)c3ccccc3)c(C)o2)cc1`, for which the AC50 was 9.08 µM.

As to `O=C1CCc2cc(NC(=O)c3cccc(C(F)(F)F)c3)ccc2N1`, the AC50 was 16.8 µM.

For the compound `Cc1ccc2c(c1)c(Cn1cc(-c3sccc3C)nn1)nn2C`, the AC50 is 20.2 µM and 28.7 µM.

For `Cc1ccc(S(=O)(=O)Nc2ccc3c(c2)C(=O)N([C@@H](C)CO)C[C@H](C)[C@H](CN(C)Cc2ccc(C(F)(F)F)cc2)O3)cc1`, the AC50 is 18.2 µM.

`O=C(C1CCCCC1)N1CCC2(CC1)Nc1ccc(Cl)cc1-n1cccc12`: the half-maximal activity concentration (AC50) was 24.7 µM.

With `CCCNC(=O)N1C[C@@H]2N[C@H](C1)C2c1ccc(-c2ccccc2C)cc1` (some centres not stated), the concentration at half-maximal activity (AC50) is 18.1 µM.

Regarding `CCc1nc(OCC(=O)NCc2ccccc2)c2ccccc2n1`, the AC50 is 21.9 µM.

In the case of `COc1cccc(CNC2=NCCNC23CCN(S(=O)(=O)c2cc(C)c(C)cc2C)CC3)c1`, the AC50 is 9.29 µM.

With `Cc1ccc(-c2csc(-c3cccn3CC(=O)NCCCN3CCCC(C)C3)n2)cc1` (configuration not stated), the concentration at half-maximal activity (AC50) is 17.2 µM.

As for `COc1ccc(N(Cc2nc(-c3ccc(C)cc3)oc2C)S(=O)(=O)c2ccccc2C)cc1`, the concentration at half-maximal activity (AC50) is 31.9 µM.

On to `O=C(C[C@@H]1CC[C@@H]2[C@H](COC[C@@H](O)CN2Cc2ccc(Oc3ccccc3)cc2)O1)N1CCN(c2ccccc2)CC1`, for which the concentration at half-maximal activity (AC50) is 20.7 µM.

For `CC(C)c1ccc(S(=O)(=O)N2CCC3(CC2)NCCN=C3NCc2ccc3c(c2)OCO3)cc1`, the AC50 is 33.6 µM.

Take `COc1cccc(NC(=O)N2CC(=O)N3[C@H](CO)[C@H](c4ccc(C#CCC5CCCC5)cc4)[C@H]3C2)c1`: the AC50 is 12.8 µM and 10.5 µM.

For `COC(=O)c1ccccc1NC(=O)COc1nc(C)nc2ccccc12`, the AC50 was 20.9 µM.

As to `O=C(c1ccc(F)cc1)N1CC(=O)N2[C@@H](CO)[C@H](c3ccc(C#CCC4CCCC4)cc3)[C@@H]2C1`, the AC50 is 17.9 µM and 10.9 µM.

With `O=C(CC1Nc2c3ccccc3nc(=S)n2C1=O)NCc1ccccc1Cl` (configuration not stated), the half-maximal activity concentration (AC50) was 28.7 µM.

For `Cc1ccc(CSC2=Nc3ccccc3C3=NC(CCC(=O)NCc4cccs4)C(=O)N23)c(C)c1` (configuration not stated), the half-maximal activity concentration (AC50) is 21.4 µM.

As for `COc1ccccc1C#Cc1ccc([C@@H]2[C@@H](CO)N3CCCCN(C(=O)C4CCC4)C[C@H]23)cc1`, the AC50 is 28.8 µM and 14.6 µM.

`Cc1ccc2c(c1C)-n1cccc1C1(CCN(C(=O)c3ccccc3Br)CC1)N2`: the AC50 is 17.7 µM.

As for `CC[C@H]1CN2CCC1C[C@@H]2[C@@H](O)c1ccnc2ccc(OC)cc12` (some centres not stated), the half-maximal activity concentration (AC50) is 2.25 µM.

With `Cc1cc(C)c(S(=O)(=O)N2CCC(C(=O)NCCc3csc(-c4ccccc4)n3)CC2)cc1C`, the concentration at half-maximal activity (AC50) was 14.7 µM.

As to `Cc1ccccc1-c1nc(CN2CCN(C(=O)NCCc3ccccc3)CC2)c(C)o1`, the concentration at half-maximal activity (AC50) is 17.4 µM.

For `Cc1ccccc1-c1ccc(C2[C@@H]3CN(Cc4cncnc4)C[C@H]2N3)cc1` (some centres not stated), the AC50 was 19 µM.

As for `COc1ccccc1-c1nc(C)c(-c2ccc(SCc3c(F)cccc3Cl)nn2)s1`, the AC50 is 38.4 µM.

As for `Clc1cccc(CN2CCC3(COCc4cnc(-c5ccccc5)nc43)C2)c1` (configuration not stated), the concentration at half-maximal activity (AC50) is 18.2 µM and 10.4 µM.

For the compound `O=C(c1cnccn1)N1CC(=O)N2[C@H](CO)[C@H](c3ccc(-c4cccc(F)c4)cc3)[C@H]2C1`, the half-maximal activity concentration (AC50) was 13.9 µM and 25 µM.

For the compound `CCCCCCCCCCCCCCCC[n+]1ccccc1`, the half-maximal activity concentration (AC50) was 11.5 µM.

Take `COc1ccccc1S(=O)(=O)N1CC[C@@H]2[C@H]1c1cc(-c3cccc(C#N)c3)ccc1N(C)[C@H]2CO`: the AC50 was 18.9 µM.

With `CN1C(=O)c2cc(NC(=O)Cc3cccs3)ccc2OC[C@@H]2O[C@H](CC(=O)NCC3CCCCC3)CC[C@@H]21`, the AC50 was > 39 µM (inactive).

For `CC(C)(C)OC(=O)Nc1cc(-c2cn[nH]c2C2CCCN(C(=O)OC(C)(C)C)C2)ccn1` (configuration not stated), the AC50 was 10.1 µM.

Regarding `COc1ccccc1CNC(=O)CCC1N=C2c3ccccc3N=C(SCc3cccc(F)c3)N2C1=O` (configuration not stated), the AC50 is > 39 µM (inactive).

As to `CCCNC(=O)c1cc(-c2cnc(NCc3ccccc3)nc2)cn1C`, the half-maximal activity concentration (AC50) is 7.07 µM and 17.3 µM.

Take `Fc1cccnc1OC1COC2(CCN(Cc3ccsc3)CC2)C1` (configuration not stated): the AC50 was 24.8 µM.

Consider `Cc1ccccc1-c1nc(CN2CCN(C(=O)Nc3ccc(F)cc3)CC2)c(C)o1`, for which the AC50 is > 39 µM (inactive).

Turning to `CCc1nc(OCC(=O)N(C)c2ccccc2)c2ccccc2n1`, the half-maximal activity concentration (AC50) is 24.4 µM.

In the case of `COc1ccccc1NC(=O)N1CCCCN2[C@H](CO)[C@@H](c3ccc(-c4cccc(C#N)c4)cc3)[C@@H]2C1`, the AC50 was 21.5 µM.

In the case of `O=C(Nc1cccc(F)c1)N1CCCCN2[C@H](CO)[C@H](c3ccc(C#Cc4cccnc4)cc3)[C@H]2C1`, the half-maximal activity concentration (AC50) is 19.3 µM.

Turning to `Cc1cc(C(=O)Nc2ccc3c(c2)C(=O)N(C)[C@@H]2CC[C@@H](CC(=O)NCc4ccc(-c5ccccc5)cc4)O[C@@H]2CO3)no1`, the half-maximal activity concentration (AC50) was 20.8 µM.

For `N#C[C@@H]1[C@@H](c2ccc(C3=CCCCC3)cc2)[C@@H](CO)N1S(=O)(=O)c1ccccc1`, the AC50 was > 39 µM (inactive) and 5.52 µM.

As to `COc1cccc(-c2ccc([C@H]3[C@H]4CN(C(=O)Cc5ccncc5)CCCCN4[C@H]3CO)cc2)c1`, the AC50 was > 39 µM (inactive).

In the case of `COc1ccccc1C(=O)N1CCC2(CC1)Nc1cc(F)ccc1-n1cccc12`, the AC50 was > 39 µM (inactive).

Regarding `O=C(NC1CCCC1)N1CC(=O)N2[C@H](CO)[C@H](c3ccc(C4=CCCCC4)cc3)[C@@H]2C1`, the AC50 is 35.3 µM.

Consider `COCC(=O)N1[C@H](C#N)[C@H](c2ccc(C#CCC3CCCC3)cc2)[C@@H]1CO`, for which the AC50 was 29.6 µM and 27.8 µM.

As for `COc1ccc(-c2nc(N(C)Cc3ccco3)c3ccccc3n2)cc1`, the half-maximal activity concentration (AC50) was 17 µM.

With `COc1ccc(S(=O)(=O)N2CCCCN3[C@H](C2)[C@@H](c2ccc(C#CCC(C)C)cc2)[C@@H]3CO)cc1`, the AC50 was 12.3 µM.

For orientation: AC50 means the concentration giving half of the maximal activity seen.
